Assay results: patent US11878975B2, “Substituted indole compounds useful as TLR inhibitors” (BRISTOL-MYERS SQUIBB COMPANY, priority 2017, dated 2024)

How the values were obtained:
Type in all cases: cell-based
human TLR7 = target: T1, human TLR7 (Homo sapiens, UniProt Q9NYK1); assay: TLR7 inhibition reporter assay (HEK-Blue cells, SEAP reporter, gardiquimod stimulation); settings: HEK-Blue cells overexpressing human TLR7, SEAP reporter, gardiquimod 7.5 μM
T1 construct: host or cells: HEK-Blue cells
T1 sequence (Q9NYK1 27-1049): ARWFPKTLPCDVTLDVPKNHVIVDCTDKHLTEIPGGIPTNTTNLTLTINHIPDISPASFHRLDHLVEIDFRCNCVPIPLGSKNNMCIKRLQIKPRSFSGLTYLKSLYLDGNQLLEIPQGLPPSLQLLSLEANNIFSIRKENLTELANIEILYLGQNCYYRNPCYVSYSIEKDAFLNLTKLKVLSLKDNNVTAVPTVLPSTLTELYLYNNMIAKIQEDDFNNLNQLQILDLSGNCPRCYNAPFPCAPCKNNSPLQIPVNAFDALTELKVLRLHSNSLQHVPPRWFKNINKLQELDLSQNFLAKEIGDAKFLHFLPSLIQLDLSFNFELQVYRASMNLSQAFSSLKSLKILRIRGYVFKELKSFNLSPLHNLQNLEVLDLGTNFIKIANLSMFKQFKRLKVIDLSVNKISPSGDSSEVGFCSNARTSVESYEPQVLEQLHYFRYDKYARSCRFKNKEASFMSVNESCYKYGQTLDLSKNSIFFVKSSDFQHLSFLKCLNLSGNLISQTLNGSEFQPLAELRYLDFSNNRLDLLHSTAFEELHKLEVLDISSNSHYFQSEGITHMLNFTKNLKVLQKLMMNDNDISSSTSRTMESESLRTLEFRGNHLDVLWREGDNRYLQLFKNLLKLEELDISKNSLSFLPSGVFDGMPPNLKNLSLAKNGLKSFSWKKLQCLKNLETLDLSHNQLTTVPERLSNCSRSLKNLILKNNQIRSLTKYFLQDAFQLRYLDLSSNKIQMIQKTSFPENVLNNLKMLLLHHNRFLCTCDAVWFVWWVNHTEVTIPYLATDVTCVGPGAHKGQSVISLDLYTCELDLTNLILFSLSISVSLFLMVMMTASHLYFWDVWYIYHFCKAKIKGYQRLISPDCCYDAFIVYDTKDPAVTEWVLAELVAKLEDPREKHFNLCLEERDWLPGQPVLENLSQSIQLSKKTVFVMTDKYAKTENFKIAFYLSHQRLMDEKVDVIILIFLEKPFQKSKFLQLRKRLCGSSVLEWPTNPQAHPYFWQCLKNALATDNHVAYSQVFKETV
Method in brief: (§1)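 Ligand levels: TLR7 gardiquimod 7.5 μM, TLR8 R848 15.9 μM, TLR9 ODN2006 5 nM, added after 30 min room-temperature compound pre-incubation at 0.05 nM-50 μM. Reporter SEAP read with HEK-Blue Detection reagent after 22 h, 37° C. Inhibition expressed as % reduction relative to agonist-plus-DMSO and known-inhibitor controls.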

human TLR8 = target: T2, human TLR8 (Homo sapiens, UniProt Q9NR97); assay: TLR8 inhibition reporter assay (HEK-Blue cells, SEAP reporter, R848 stimulation); settings: HEK-Blue cells overexpressing human TLR8, SEAP reporter, R848 15.9 μM
T2 construct: host or cells: HEK-Blue cells
T2 sequence (Q9NR97 27-1041): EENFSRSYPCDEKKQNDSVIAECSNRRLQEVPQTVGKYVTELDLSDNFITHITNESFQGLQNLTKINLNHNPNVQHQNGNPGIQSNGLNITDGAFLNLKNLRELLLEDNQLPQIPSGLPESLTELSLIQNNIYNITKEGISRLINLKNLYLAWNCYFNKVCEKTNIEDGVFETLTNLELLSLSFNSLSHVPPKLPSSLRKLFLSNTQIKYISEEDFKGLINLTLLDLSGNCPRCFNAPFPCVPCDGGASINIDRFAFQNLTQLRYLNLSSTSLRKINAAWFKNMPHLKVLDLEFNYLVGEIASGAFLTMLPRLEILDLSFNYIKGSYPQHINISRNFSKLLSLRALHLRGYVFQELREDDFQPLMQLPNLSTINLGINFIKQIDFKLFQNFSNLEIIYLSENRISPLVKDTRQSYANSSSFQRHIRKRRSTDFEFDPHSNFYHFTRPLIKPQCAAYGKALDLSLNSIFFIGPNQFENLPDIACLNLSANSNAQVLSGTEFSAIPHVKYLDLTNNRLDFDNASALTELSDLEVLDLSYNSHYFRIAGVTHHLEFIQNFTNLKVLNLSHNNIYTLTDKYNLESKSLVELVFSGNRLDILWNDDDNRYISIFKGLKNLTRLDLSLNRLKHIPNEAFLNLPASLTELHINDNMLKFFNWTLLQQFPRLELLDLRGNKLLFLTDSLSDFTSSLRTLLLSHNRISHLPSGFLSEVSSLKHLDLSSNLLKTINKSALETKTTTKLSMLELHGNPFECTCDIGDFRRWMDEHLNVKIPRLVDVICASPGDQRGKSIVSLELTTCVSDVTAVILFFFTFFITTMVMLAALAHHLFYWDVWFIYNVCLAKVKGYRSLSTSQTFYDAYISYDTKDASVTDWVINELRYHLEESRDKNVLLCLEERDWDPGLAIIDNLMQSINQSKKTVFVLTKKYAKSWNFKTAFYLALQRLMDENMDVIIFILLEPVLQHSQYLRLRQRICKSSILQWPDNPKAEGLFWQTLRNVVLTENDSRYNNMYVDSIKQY
Method in brief: as §1

human TLR9 = target: T3, human TLR9 (Homo sapiens, UniProt Q9NR96); assay: TLR9 inhibition reporter assay (HEK-Blue cells, SEAP reporter, ODN2006 stimulation); settings: HEK-Blue cells overexpressing human TLR9, SEAP reporter, ODN2006 5 nM
T3 construct: host or cells: HEK-Blue cells
T3 sequence (Q9NR96 26-1032): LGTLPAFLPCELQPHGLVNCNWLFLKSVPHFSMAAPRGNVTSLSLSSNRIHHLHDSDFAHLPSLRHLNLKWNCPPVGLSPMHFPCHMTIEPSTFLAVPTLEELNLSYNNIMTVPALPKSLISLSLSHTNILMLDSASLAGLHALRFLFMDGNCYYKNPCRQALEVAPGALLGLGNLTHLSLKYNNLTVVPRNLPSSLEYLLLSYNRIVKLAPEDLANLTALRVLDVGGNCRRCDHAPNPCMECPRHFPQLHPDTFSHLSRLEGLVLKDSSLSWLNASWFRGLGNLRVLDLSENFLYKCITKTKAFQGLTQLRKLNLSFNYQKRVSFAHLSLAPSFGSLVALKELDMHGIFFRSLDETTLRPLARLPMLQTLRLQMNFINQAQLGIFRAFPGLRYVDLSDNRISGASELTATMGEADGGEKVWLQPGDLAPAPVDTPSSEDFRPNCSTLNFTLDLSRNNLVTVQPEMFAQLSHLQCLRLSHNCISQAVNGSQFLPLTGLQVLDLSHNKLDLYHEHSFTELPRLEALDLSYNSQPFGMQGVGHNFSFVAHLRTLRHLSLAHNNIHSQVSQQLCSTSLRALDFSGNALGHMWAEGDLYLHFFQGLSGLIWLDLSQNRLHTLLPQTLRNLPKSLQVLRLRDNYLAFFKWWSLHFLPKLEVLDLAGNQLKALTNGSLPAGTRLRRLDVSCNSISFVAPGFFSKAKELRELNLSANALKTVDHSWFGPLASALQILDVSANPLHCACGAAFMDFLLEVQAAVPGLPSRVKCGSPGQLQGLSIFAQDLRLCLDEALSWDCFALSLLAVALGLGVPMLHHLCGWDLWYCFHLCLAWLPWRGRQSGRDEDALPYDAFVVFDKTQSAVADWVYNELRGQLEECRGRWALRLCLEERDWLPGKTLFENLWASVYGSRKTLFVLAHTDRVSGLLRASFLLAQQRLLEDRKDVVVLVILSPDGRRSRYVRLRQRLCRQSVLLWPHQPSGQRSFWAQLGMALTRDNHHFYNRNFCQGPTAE
Method in brief: as §1

| SMILES | IC50 (human TLR7) | IC50 (human TLR8) | IC50 (human TLR9) |
| --- | --- | --- | --- |
| Cc1cc(-c2[nH]c3ccc(C4CCC(C(=O)N5CCCCC5)CC4)cc3c2C(C)C)cn2ncnc12 (single isomer, unassigned) [Example 159] | 1.69 µM | 1.85 µM | 28.6 µM |
| Cc1cc(-c2[nH]c3ccc(C4CCC(C(=O)N5CCCCC5)CC4)cc3c2C(C)C)cn2ncnc12 (single isomer, unassigned) [Example 160] | 0.009 µM | 0.154 µM | 30.3 µM |
| Cc1cc(-c2[nH]c3ccc(C4CCC(C)(O)CC4)cc3c2C(C)C)cc(C)n1 (single isomer, unassigned) [Example 169] | 0.029 µM | 0.293 µM | 41.3 µM |
| Cc1cc(-c2[nH]c3ccc(C4CCC(O)CC4)cc3c2C(C)C)cc(C)n1 (single isomer, unassigned) [Example 171, 4-(2-(2,6-dimethylpyridin-4-yl)-3-isopropyl-1H-indol-5-yl)cyclohexanol] | 0.027 µM | 0.212 µM | > 50 µM |
| Cc1cc(-c2[nH]c3ccc(C4CCC(O)CC4)cc3c2C(C)C)cc(C)n1 (single isomer, unassigned) [Example 172, 4-(2-(2,6-dimethylpyridin-4-yl)-3-isopropyl-1H-indol-5-yl)cyclohexanol] | 0.008 µM | 0.035 µM | 15.8 µM |
| Cc1cc(-c2[nH]c3ccc(C4CCC(N(C)CC(=O)N(C)C)CC4)cc3c2C(C)C)cn2ncnc12 (single isomer, unassigned) [Example 177, 2-((4-(3-isopropyl-2-(8-methyl-[1,2,4]triazolo[1,5-a]pyridin-6-yl)-1H-indol-5-yl)cyclohexyl)(methyl)amino)-N,N-dimethylacetamide] | 0.005 µM | 0.024 µM | 7.02 µM |

The next molecules have a lower IC50 (human TLR7) than those just listed; values first:

| IC50 (human TLR7) | IC50 (human TLR8) | IC50 (human TLR9) | SMILES |
| --- | --- | --- | --- |
| 0.00079 µM | 0.0037 µM | 1.62 µM | CNC1CCC(c2ccc3[nH]c(-c4cc(OC)c5ncnn5c4)c(C(C)C)c3c2)CC1 (single isomer, unassigned) [Example 146, 4-(3-isopropyl-2-(8-methoxy-[1,2,4]triazolo[1,5-a]pyridin-6-yl)-1H-indol-5-yl)-N-methylcyclohexanamine] |
| 0.004 µM | 0.0034 µM | 2.85 µM | COCCN(C)C1CCC(c2ccc3[nH]c(-c4cn5ncnc5c(C)c4C)c(C(C)C)c3c2)CC1 (single isomer, unassigned) [Example 152, 4-(2-(7,8-dimethyl-[1,2,4]triazolo[1,5-a]pyridin-6-yl)-3-isopropyl-1H-indol-5-yl)-N-(2-methoxyethyl)-N-methylcyclohexanamine] |
| 0.0005 µM | 0.00072 µM | 2.14 µM | COCCN(C)C1CCC(c2ccc3[nH]c(-c4cn5ncnc5c(C)c4C)c(C(C)C)c3c2)CC1 (single isomer, unassigned) [Example 153, 4-(2-(7,8-dimethyl-[1,2,4]triazolo[1,5-a]pyridin-6-yl)-3-isopropyl-1H-indol-5-yl)-N-(2-methoxyethyl)-N-methylcyclohexanamine] |
| 0.00082 µM | 0.0067 µM | 3.64 µM | Cc1cc(-c2[nH]c3ccc(C4CCC(C(=O)N5CCN(C)CC5)CC4)cc3c2C(C)C)cn2ncnc12 (single isomer, unassigned) [Example 156] |
| 0.00038 µM | 0.0025 µM | 6.25 µM | Cc1cc(-c2[nH]c3ccc(C4CCC(C(=O)N5CCN(C)CC5)CC4)cc3c2C(C)C)cn2ncnc12 (single isomer, unassigned) [Example 157] |
| 0.00056 µM | 0.0012 µM | 2.11 µM | CNC(=O)CNC1CCC(c2ccc3[nH]c(-c4cc(C)c5ncnn5c4)c(C(C)C)c3c2)CC1 (single isomer, unassigned) [Example 162, 2-((4-(3-isopropyl-2-(8-methyl-[1,2,4]triazolo[1,5-a]pyridin-6-yl)-1H-indol-5-yl)cyclohexyl)amino)-N-methylacetamide] |
| 0.00063 µM | 0.00064 µM | 2.24 µM | CNC(=O)CNC1CCC(c2ccc3[nH]c(-c4cc(C)c5ncnn5c4)c(C(C)C)c3c2)CC1 (single isomer, unassigned) [Example 163, 2-((4-(3-isopropyl-2-(8-methyl-[1,2,4]triazolo[1,5-a]pyridin-6-yl)-1H-indol-5-yl)cyclohexyl)amino)-N-methylacetamide] |
| 0.00023 µM | 0.0024 µM | 1.78 µM | Cc1cc(-c2[nH]c3ccc(C4CCC(N(C)CC(=O)N(C)C)CC4)cc3c2C(C)C)cn2ncnc12 (single isomer, unassigned) [Example 178, 2-((4-(3-isopropyl-2-(8-methyl-[1,2,4]triazolo[1,5-a]pyridin-6-yl)-1H-indol-5-yl)cyclohexyl)(methyl)amino)-N,N-dimethylacetamide] |
| 0.002 µM | 0.0035 µM | 0.767 µM | CNC(=O)CNC1CCC(c2ccc3[nH]c(-c4cc(C)nc(C)c4)c(C(C)C)c3c2)CC1 (single isomer, unassigned) [Example 179, 2-((4-(2-(2,6-dimethylpyridin-4-yl)-3-isopropyl-1H-indol-5-yl)cyclohexyl)amino)-N-methylacetamide] |
